Measurements taken from publication PMC6458995, “MAP4K4 Inhibition Promotes Survival of Human Stem Cell-Derived Cardiomyocytes and Reduces Infarct Size In Vivo” (Cell Stem Cell, 2019).
Each block holds one compound with its values, some of them ahead of it.

Experiments:
recombinant human MAP4K4 = molecular target: T1, recombinant human MAP4K4 (Homo sapiens, UniProt O95819); assay: In vitro MAP4K4 kinase activity assay (HTRF Transcreener ADP); type: biochemical; details: MAP4K4; HTRF Transcreener ADP assay; read-out: pIC50 (converted)
T1 construct: Human MAP4K4 kinase domain (aa 1-328); purchased Invitrogen PV3687
Description: MAP4K4 kinase activity was monitored using the CisBio HTRF Transcreener ADP assay, a competitive immunoassay with a reproducible Z’ > 0.6. In the detection step, endogenous ADP and d2-labeled ADP compete for binding an anti-ADP monoclonal antibody labeled with Eu^3+ cryptate. […] Assays were run in Greiner low volume plates with a final reaction volume of 10 μl. Percent inhibition was calculated from 100% activity of MAP4K4 (DMSO only) and 0% activity (no enzyme added). Data were either reported as % inhibition at a single dose or as pIC50 values derived from dose response curves (pIC50 = -log[IC50]).

vCor.4U hiPSC-CMs = assay: Calcium transients (FLIPR Tetra, EarlyTox Cardiotoxicity dye); type: cell-based, human; details: Homo sapiens; calcium cycling; vCor.4U; 24 h; read-out: half-maximal loss of peak area and peak height
Description: Calcium transients in hiPSC-CMs were assessed using FLIPR Tetra instrumentation and Early Tox Cardiotoxicity kits (Molecular Devices). vCor.4U cells were subjected to graded concentrations of menadione and the MAP4K4 inhibitors as described for the viability assays. Compound concentrations and time course are denoted in the figure and figure legend. Vehicle controls were used throughout. Cells were incubated for 2-3 hr at 37°C in 5% CO2, using 3 μL well^-1 of EarlyTox Cardiotoxicity Kit concentrate as the fluorescent calcium indicator dye. Plates were then removed from the incubator and allowed to reach room temperature. Intracellular calcium oscillations were monitored using a FLIPR Tetra system with excitation LED bank 470-495 nm and emission filter set 515-575 nm (Molecular Devices). Fluorescence intensity signals were acquired for 600 reads at 1.2 ms intervals. Beat frequency, median peak height, median peak width and total peak area were calculated and compared with the baseline control and with menadione alone. Protection of calcium cycling by DMX-4804 was confirmed in 3 independent experiments with overlapping conditions, and results are shown for a full dose-response study, analyzing 4 wells for each point.

vCor.4U cells = assay: Mitochondrial function (Seahorse XFe24, OCR and ECAR); type: cell-based, human; details: menadione 15 μM; 2 h
Description: Mitochondrial function in hiPSC-CMs was determined using a Seahorse XFe24 Analyzer. vCor.4U cells (60,000 well^-1) were transferred to 0.1% gelatin-coated XF24 plates and maintained for 5 d, as described above. On day 6, DMX-5804 was added 45 min prior to challenge with menadione for 2 h. The medium was replaced 1 hr before the assay, using bicarbonate-free Seahorse assay medium (8.3 g L^-1 DMEM Base (Sigma-Aldrich), 10 mM glucose, 2 mM L-alanyl-L-glutamine dipeptide (Glutamax-1, GIBCO), 1 mM sodium pyruvate (GIBCO), pH 7.4). Cells were maintained at 37°C without supplemental CO2 starting 1 hr before the assay (IL10 incubator, VWR). For each state measured, three assay cycles were performed (4 min mixing, 2 min wait, and 2 min measurement periods, with readings every 15 s). The basal oxygen consumption rate (OCR) and extracellular acidification rate (ECAR) were determined, followed by sequential injection of 1 μM oligomycin A (Abcam) to inhibit ATP synthase, 0.5 μM […] (FCCP; Abcam) to uncouple oxidative phosphorylation, and 1 μM antimycin A/rotenone (Sigma, Abcam) to inhibit mitochondrial complex III and I. For each condition, 12 wells were tested, comprising 4 independent experiments.

vCor.4U cardiomyocytes = assay: CellTiter-Glo viability after oxidative stress (H2O2 or menadione); type: cell-based, human; details: vCor.4U; 400 μM H2O2 1 h after compound; 10 μM
Description: vCor.4U cardiomyocytes were cultured, except where noted, on white (viability) or black (FLIPR) clear-bottom 384-well plates, treated for 1 hr with […] fibronectin (Sigma-Aldrich). To minimize batch to batch variation, thawed cells first were transferred from cryo-vials into sterile 250 mL flasks containing pre-warmed vCor.4U maintenance medium, for 3-5 d. The cells were then plated at 1000 well^-1 for viability assays or 5000 cells well^-1 for FLIPR experiments, all in 40 μl well^-1 of the maintenance medium. Cells were cultured in Axiogenesis complete medium followed by incomplete medium, were subjected to oxidative stress ± test compounds on day 3, and were assayed on day 4 (Figures 4D and 4E). Alternatively, complete medium was replaced on day 2 of culture with 40 μl of DMEM high Glucose (no FCS or pyruvate), followed by removal and replacement of 20 μl every 2 d for 10 d (Figures 4A–4C).
H2O2, menadione (Sigma-Aldrich), doxorubicin (Calbiochem), and C2-ceramide (N-acetyl-D-sphingosine) were used at the indicated concentrations. MAP4K4 inhibitors were serially diluted in DMSO, transferred to an intermediate plate using assay medium as a diluting agent, and added at a final concentration of 0.1% DMSO. MAP4K4 inhibitors were added to cultured cardiomyocytes 1 hr before the cell death inducers, except where noted, and remained present for the duration of the experiment.
For cell-based dose-response experiments, MAP4K4 inhibitors were prepared in 96-well polypropylene plates as serial dilutions in DMSO of 10 mM stock solutions. To a sterile 96-well intermediate plate, 1 μl of each well was added to 99 μl of medium, the samples were mixed, and 5 μl well^-1 from the intermediate plate were transferred to the cultured cells (final concentration, 0.1% DMSO; final top concentration of inhibitor, 10 μM). Assay plates were gently centrifuged then incubated for 1 hr at 37°C. The death triggers menadione, H2O2 and doxorubicin were prepared fresh on the day of treatment at 10x the final concentrations and 5 μl well^-1 were added as appropriate. Assay plates were gently centrifuged and then incubated at 37°C for the duration of treatment.
Assay plates were removed from the incubator, allowed to reach room temperature, inoculated with 20 μl well^-1 CTG reagent (Promega), and gently agitated for 30 min. Prior to adding CTG, 2 μl well^-1 of the culture medium was removed and placed into a white 384-well low volume plate for measurement of cardiac troponin release by AlphaLISA (below). Luminescence due to ATP, proportional to cell number, was captured on a PHERAstar Plus microplate reader (BMG Labtech). Normalized values were plotted against the log concentration of death signal or inhibitor, and a 4-parameter fit was used to identify IC50 and EC50, respectively.

T1 sequence (O95819 1-328): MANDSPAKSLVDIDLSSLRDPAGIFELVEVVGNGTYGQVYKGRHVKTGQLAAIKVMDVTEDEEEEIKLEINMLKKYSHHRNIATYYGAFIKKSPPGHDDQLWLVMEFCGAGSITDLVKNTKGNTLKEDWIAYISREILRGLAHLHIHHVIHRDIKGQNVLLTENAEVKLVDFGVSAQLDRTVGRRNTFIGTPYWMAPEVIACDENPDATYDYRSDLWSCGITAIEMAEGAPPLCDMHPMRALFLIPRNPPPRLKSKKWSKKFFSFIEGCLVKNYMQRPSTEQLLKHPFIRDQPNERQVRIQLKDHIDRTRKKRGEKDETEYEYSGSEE

- IC50 (recombinant human MAP4K4): 7.94 µM
SMILES: O=c1[nH]cnc2c1ccn2-c1ccccc1 [DMX-4815]

- IC50 (recombinant human MAP4K4): 0.794 µM
SMILES: O=c1[nH]cnc2[nH]cc(-c3ccccc3)c12 [DMX-4850]

SMILES: CC1=CC(=O)c2ccccc2C1=O [menadione]
- IC50 (vCor.4U hiPSC-CMs): 16 µM
- Maximum oxidative capacity, of control levels (vCor.4U cells): 15%

SMILES: COCCc1ccc(OCC(O)CNC(C)C)cc1 (centres unmarked) [metoprolol]
- human cardiomyocyte survival (rescue of viability) (vCor.4U cardiomyocytes): promoted
